Measured values published in patent publication US20260242390A1, “TOTAL SYNTHESES OF PORTIMINE A AND ANALOGUES THEREOF AS SMALL MOLECULE MODULATORS OF NMD3” (priority 2023, published 2026).

System: Jurkat cells
Test: Immunoblot of caspase 3 in Jurkat cells
Format: cell-based, human
Details: for cell apoptosis / Caspase 3 activation: Jurkat 5M per well, 2 nM-1000 nM, 12 hours; for cell apoptosis, immunoblot of caspase 3: Jurkat cells, 12 hours at 10 nM; for caspase-3 cleavage in Jurkat cells: dose-dependent, immunoblot
Source text: FIG. 1. Portimine A is non-toxic to primary human PBMCs. Portimine A and its functional analogs show stereo-selective acute toxicity in cancer cells. […] (B) Structure of portimine related analogs: phenyl-portimine A (Ph-PA, 36) and epi-portimine A (ePA, 38). Structure of fully functionalized portimine A-based epimeric probe pair: portimine A-diazirine-alkyne (PA-DA, 35-2) and epi-portimine A-diazirine-alkyne (ePA-DA, 35-1). (C) Cell viability analysis of portimine A and analogs. Jurkat cells were treated with increasing concentrations of portimine A and analogs for 24 hours. All presented data as mean of biological replicated experiments (n=3). […] Jurkat cells were treated with portimine A or analogs for 12 hours at 10 nM.
FIG. 3. Initial SAR studies: Assessing activity of PAL functionalized PTMA analogs. […] (A) PA and Ph-PA show less toxic to healthy PBMCs compared to Jurkat cells. […] (B) Immunoblot of caspase-3 in Jurkat and PBMCs with indicated conditions.
FIG. 5. […] (I, J) Confirmation of PA-DA engagement of NMD3 in Jurkat and HCC1806 cells. […] Treatment condition: Jurkat (5M per well). Portimine A concentration: 2 nM-1000 nM; In total treat cell for 12 hours.
• 1) Portimine A and its functional analogs show stereo-selective acute toxicity in cancer cells (FIG. 1). […] (B) Structure of portimine related analogs: phenyl-portimine A (Ph-PA, 36) and epi-portimine A (ePA, 38). Structure of fully functionalized portimine A-based epimeric probe pair: portimine A-diazirine-alkyne (PA-DA, 35-2) and epi-portimine A-diazirine-alkyne (ePA-DA, 35-1). (C) Cell viability analysis of portimine A and analogs. Jurkat cells were treated with increasing concentrations of portimine A and analogs for 24 hours. All presented data as mean of biological replicated experiments (n=3). […] Jurkat cells were treated with portimine A or analogs for 12 hours at 10 nM. […] Structurally related negative control ePA and PB are non-toxic in all cell types in the current concentrate range. PBMCs (25k per well), Jurkat (10k per well). […] Cell cycle analysis in Jurkat cells (FIG. 2). Jurkat cells were treated with 10 nM of indicated compounds for 24 hours, and propodium iodide was used to identify different stages of cells by flow cytometry. […] (A) PA and Ph-PA show less toxic to healthy PBMCs compared to Jurkat cells. […] (B) Immunoblot of caspase-3 in Jurkat and PBMCs with indicated conditions. […] (A) Pharmacokinetic studies of mouse intraperitoneal (i.p.) and oral (p.o.) administration for portimine (n=3). […] Impact of PA [0.3 or 1 mg/kg intraperitoneally] on MC38 tumor growth in WT mice (n=6). (C) Kaplan-Myer survival curve of WT MC38 tumor-bearing mice (n=6) after treatment with PA as described in (D). Mice were euthanized when tumor area exceeded 2000 mm^3. Statistical analysis was performed using ANOVA analysis followed by multiple comparisons test, * p≤0.05. Treatment condition: Jurkat (60 M per condition); PA-DA/ePA-DA concentration: 0.5 uM, PA or ePA: 5 uM; Incubate with probe with or without competitors (PA, ePA) for 30 min; UV irradiated for 20 min. (0.5 uM PA-DA add a no-UV condition), Standard pulldown & biotin-enrichment and western blot analysis (Elute condition: 2× sample buffer+500 uM biotin, boil for 20 mins); Primary antibody NMD3 (ProteinTech, 1:150), Actin (BioRad, 1:10000). […] Chemical proteomic profiling with PA-DA in Jurkat cells (A, B, C, G) and HCC1806 cells (D, E, F, H) show NMD3 is the primary target candidate of portimine A. Volcano plot in panels A and D show protein competition in cells treated with active photoaffinity probe PA-DA (500 nM) and DMSO or the active competitor portimine A (PA, […]), dotted lines indicate threshold of fold change <4, p-value>0.05. […] (I, J) Confirmation of PA-DA engagement of NMD3 in Jurkat and HCC1806 cells. […] Treatment condition: Jurkat (5M per well). Portimine A concentration: 2 nM-1000 nM; In total treat cell for 12 hours. […] Protein degradation of p53, Mcl1, Bid, Bim, Noxa can be rescued by MG132 or Epoxomicin. […]

Compound | cell apoptosis / Caspase 3 activation | cell apoptosis, immunoblot of caspase 3 | caspase-3 cleavage in Jurkat cells
C=CC1=C[C@@H]2[C@@H]3O[C@]4(CC[C@H](O4)C(C)C[C@@H](O)C3=O)CC(O)C3=NCC[C@@]32CC1 (stereo partly shown) [PA, portimine A] | causes cell apoptosis in dose-dependent manner | induce cell apoptosis | induced caspase-3 cleavage in a dose-dependent manner
C#CCCC1(CCNC(=O)c2ccc(C3=C[C@@H]4[C@@H]5O[C@]6(CC[C@H](O6)C(C)C[C@@H](O)C5=O)CC(O)C5=NCC[C@@]54CC3)cc2)N=N1 (stereo partly shown) [PA-DA, portimine A-diazirine-alkyne] |  | induce cell apoptosis | induced caspase-3 cleavage in a dose-dependent manner
C=CC1=C[C@@H]2[C@@H]3OC4(CC[C@H](O4)C(C)C[C@@H](O)C3=O)CC(=O)C3=NCC[C@@]32CC1 (stereo partly shown) [PB, portimine B] |  | do not | 
CC1C[C@@H](O)C(=O)[C@H]2O[C@]3(CC[C@@H]1O3)CC(O)C1=NCC[C@@]13CCC(c1ccccc1)=C[C@H]23 (stereo partly shown) [Ph-PA, phenyl-portimine A] |  | induce cell apoptosis | 
C=CC1=C[C@@H]2[C@@H]3O[C@]4(CC[C@H](O4)C(C)C[C@@H](O)C3=O)C[C@@H](O)C3=NCC[C@@]32CC1 (stereo partly drawn) [ePA, epi-portimine A] | does not show significant Caspase 3 activation | do not | 
C#CCCC1(CCNC(=O)c2ccc(C3=C[C@@H]4[C@@H]5O[C@]6(CC[C@H](O6)C(C)C[C@@H](O)C5=O)C[C@@H](O)C5=NCC[C@@]54CC3)cc2)N=N1 (stereo partly drawn) [ePA-DA, epi-portimine A-diazirine-alkyne] |  | do not | 
